The numbers were not newly measured in US6462226B1, “Process for the preparation of 4,5-diamino shikimic acid derivatives” (priority 1999, dated 2002), which cites them from elsewhere.

The test system of this data set is viral neuraminidase. The note with it: J. C. Rohloff et al., J.Org.Chem. 63, 1998, 4545-4550; WO 98/07685.

With `CCOC(=O)C1=C[C@@H](OC(CC)CC)[C@H](NC(C)=O)[C@@H](N)C1` [Example 1, Ethyl (3R, 4R, 5S)-4-acetamido-5-amino-3-(1-ethylpropoxy)-1-cyclohexene-1-carboxylate], the “inhibition of viral neuraminidase” value was “potent inhibitors”.
